This is an account of results in patent publication US12629383B2, “Cannabinoid compositions with high solubility and bioavailability” (priority 2020, dated 2026).

By AUC(0-t) is commonly meant the area under the concentration-time curve up to a stated or last time point. A word on the Cmax: it is the peak of the concentration-time curve.

Where two headings read alike, the source gives them in different places.

A short description of data set [1]: Dissolution study, USP type II apparatus, HPLC quantification of CBD released. It is filed as physicochemical. The following applies: 900 ml pH 6.8 phosphate buffer. How it is done:
Dissolution study was performed in 900 ml volume with a USP type II apparatus at pH 6.8 phosphate buffer. HPLC analysis (as per below) was used to quantify the amount of CBD released at each time point.
• Method: High Performance Liquid Chromatography (HPLC); Shimadzu LC-2040 3D Nexera-i • Wave lenght: 220 nm • Column 100 mm*4.6 mm; 5 μm C18 (InertSustain) • Column Temperature: 25° C. • AutoSampler Temperature: 5° C. • Injection Volume: 5 μL • Flow rate: 1.0 mL/min • Mobile Phase: Methanol:Water (85:[…]) • Diluent: Methanol • Run Time: Cannabidiol=3.7 min

Data set [2] is described as follows: Animal study (pharmacokinetics), gavage, CBD blood concentration by HPLC. The class given is in vivo. The following applies: rat. How it is done:
According to the results of the dissolution study, compositions were prepared by adhering to the ratios of the present invention.
6 rats weighing 250+/−20 grams were used per each study group and a total of 5 groups were used. The compositions were administered by gavage at the human dose equivalent of 40 mg CBD per composition.
The results were analyzed by blood draws at each of the time points over an 8 hour period. An HPLC system was used to determine the blood concentration of CBD at the specified time points. The blood concentrations were given as (μg/mL)
The average CBD blood concentration of the groups were used to determine the pharmacokinetic parameters of Cmax, AUC and Tmax.

With `C=C(C)[C@@H]1CCC(C)=C[C@H]1c1c(O)cc(CCCCC)cc1O` [CBD API, Cannabidiol], the “% CBD API Released” value in data set [1] (5 min) is 1,89%; in data set [1] (10 min), 1,89%; in data set [1] (15 min), 2,05%; in data set [1] (30 min), 2%; in data set [1] (60 min), 2,01%; in data set [1] (120 min), 1,97%. Moreover, the “% CBD API Released” value in data set [1] (180 min) was 2,2%; in data set [1] (240 min), 2,32%. In addition, the concentration at 0 h in data set [2] (blood, oral, 40 mg CBD (human dose equivalent), hour 0, rats, human dose equivalent of 40 mg CBD, group average) came to 0 ng/mL. The concentration at […] in data set [2] (blood, oral, 40 mg CBD (human dose equivalent), hour 0.083, rats, human dose equivalent of 40 mg CBD, group average) was found to be 8 ng/mL. For the same compound, the concentration at 0.25 h in data set [2] (blood, oral, 40 mg CBD (human dose equivalent), hour 0.25, rats, human dose equivalent of 40 mg CBD, group average) was determined as 11 ng/mL. The concentration at 0.5 h in data set [2] (blood, oral, 40 mg CBD (human dose equivalent), hour 0.5, rats, human dose equivalent of 40 mg CBD, group average) was 15 ng/mL. In addition, the concentration at 1 h in data set [2] (blood, oral, 40 mg CBD (human dose equivalent), hour 1, rats, human dose equivalent of 40 mg CBD, group average) stood at 13 ng/mL. In addition, the concentration at 2 h in data set [2] (blood, oral, 40 mg CBD (human dose equivalent), hour 2, rats, human dose equivalent of 40 mg CBD, group average) turned out to be 11 ng/mL. Also, in data set [2] (blood, oral, 40 mg CBD (human dose equivalent), hour 4, rats, human dose equivalent of 40 mg CBD, group average), the concentration at 4 h amounted to 8 ng/mL. The concentration at 8 h in data set [2] (blood, oral, 40 mg CBD (human dose equivalent), hour 8, rats, human dose equivalent of 40 mg CBD, group average) worked out at 6 ng/mL. Further, the Tmax in data set [2] (blood, po, 40 mg CBD (human dose equivalent), rats, read-out: Tmax after administration (converted)) is 30 min; in data set [2] (blood, po, rats, human dose equivalent of 40 mg CBD, read-out: Tmax) it was 30 min. Besides, the AUC(0-t) in data set [2] (blood, po, rats, human dose equivalent of 40 mg CBD) was determined as 71 ng·h/mL. Also, the Cmax in data set [2] (po, rats, human dose equivalent of 40 mg CBD, from average blood concentration) came out at 15 ng/mL.
